Literature values in patent publication US20040180832A1, “Sustained peptide-release formulation” (Peptech Limited, priority 1996, published 2004).

Tested on: advanced prostatic cancer
Details: monthly subcutaneous injections

## CC(C)C[C@H](NC(=O)[C@@H](COC(C)(C)C)NC(=O)[C@H](Cc1ccc(O)cc1)NC(=O)[C@H](CO)NC(=O)[C@H](Cc1c[nH]c2ccccc12)NC(=O)[C@H](Cc1cnc[nH]1)NC(=O)[C@@H]1CCC(=O)N1)C(=O)N[C@@H](CCCNC(=N)N)C(=O)N1CCC[C@H]1C(=O)NNC(N)=O [goserelin, 3-[5-oxo-L-prolyl-L-tryptophyl-L-seryl-L-tyrosyl-(3-O-tert-butyl)-D-seryl-L-leucyl-L-arginyl-L-prolyl] cabazamide acetate.]
  efficacy in advanced prostatic cancer compared with orchiectomy: as effective as orchiectomy
  tolerability: well tolerated
